Like-named read-outs stand apart in the source and are kept apart here.
Assays:
p-EGFR [1] = experiment: Western blot, phosphorylated EGFR normalised to total EGFR, PC9 cells; type: cell-based, human
Description: (§1) Experiment 1: In a typical standard experiment, five T-75 flasks of the cell line under study were cultured to approximately 70% confluence, washed twice with PBS and grown o/n in serum-free medium. The serum-starved cells were then washed again and treated as follows:
(§2) Treatment was for about 15 minutes.
(§3) Experiment 2: In a second experiment anti-EGF was tested only at 1 to 2 dilution. […] Treatment was prolonged to about 2 hours in this experiment.
(§4) Both EGF and anti-EGF antibodies, which used in this project were derived from an immunization study in monkeys that received 4 immunizations of the rEGF-rP64k conjugate CIMAvax-EGF vaccine formulated with Montanide adjuvant. The vaccine and resulting anti-EGF antibodies were provided by Bioven (Europe) Ltd, Cruikshank Building North, Aberdeen Biotechnology, Craibstone Aberdeen, U.K. Scotland. Antibodies for Western blotting were purchased from Santa Cruz Biotechnologies (Palo Alto, CA).
(§5) Experiment 3: In a third experiment anti-EGF was tested only at 1 to 2 dilution. […] Treatment was prolonged to about 2 hours in this experiment. […] Both EGF and anti-EGF were provided by Bioven. Antibodies for Western blotting were purchased from Santa Cruz Biotechnologies (Palo Alto, CA).
(§6) Subsequently, three kind of experiments were performed:
C. […]

p-ERK1/2 [2] = experiment: Western blot, phosphorylated ERK1/2 normalised to total ERK1/2, PC9 cells; type: cell-based, human
Description: as §1, §2, §3, §4, §5, §6
(§7) C. Non-Standard Conditions: In experiments “under non-standard conditions”, PC9 (4 flasks) cells were not submitted to serum starvation and activation with fetal bovine serum instead of human EGF was employed. They were washed with PBS (×2), drugs were added in medium containing 10% FBS and incubated for 2 hours.

p-Akt [3] = experiment: Western blot, phosphorylated Akt normalised to total Akt, PC9 cells; type: cell-based, human
Description: as §1, §2, §3, §4, §5, §6, §7

pSTAT-3 [4] = experiment: Western blot, phosphorylated STAT3 normalised to total STAT3, PC9 cells; type: cell-based, human
Description: as §1, §2, §3, §4, §5, §6, §7

p-EGFR [5] = experiment: Western blot, phosphorylated EGFR, PC9-GR4 (T790M positive) cells; type: cell-based, human; conditions: AZD9291 0.2 μM, Ab1, Ctrl = 100
Excerpt: (§8) As described above, the PC9 cell line carries a 15 bp deletion in exon 19 of EGFR, making this cell line sensitive to TKI's. It represents a model for the EGFR Mutated segment of the NSCLC patient population receiving TKI treatment. As a part of this effort, PC9-derived cell lines resistant to TKIs were developed.
(§9) In 5-day experiments, PC9 cells were not submitted to serum starvation but cultured with human serum.

p-ERK1/2 [6] = experiment: Western blot, phosphorylated ERK1/2, PC9-GR4 (T790M positive) cells; type: cell-based, human; conditions: AZD9291 0.2 μM, Ab1, Ctrl = 100
Excerpt: as §8, §9

p-Akt [7] = experiment: Western blot, phosphorylated Akt, PC9-GR4 (T790M positive) cells; type: cell-based, human; conditions: AZD9291 0.2 μM, Ab1, Ctrl = 100
Excerpt: as §8, §9

pSTAT-3 [8] = experiment: Western blot, phosphorylated STAT3, PC9-GR4 (T790M positive) cells; type: cell-based, human; conditions: AZD9291 0.2 μM, Ab1, Ctrl = 100
Excerpt: as §8, §9

PC9 cells = experiment: Sensitivity of parental PC9 cells to TKIs; type: cell-based, human
Excerpt: (§10) In the conduct of this study PC9-derived cell lines that are resistant to TKIs were utilized. […] They represent a model for the EGFR Mutated segment of the NSCLC patient population receiving first-line TKI treatment.
as §8

PC9-GR1 and GR4 = experiment: Sensitivity of T790M PC9-derived lines; type: cell-based, human
Excerpt: as §10, with “treatment. […]. These two cell lines (PC9-GR1 and GR4) are sensitive to the new generation EGFR TKI developed by Astra Zeneca (AZD9291) that can also bind to the T790M EGFR mutated protein.” for “treatment.”
as §8, with “developed. […] […]. These two cell lines (PC9-GR1 and GR4) are sensitive to the new generation EGFR TKI developed by Astra Zeneca (AZD9291) that can also bind to the T790M EGFR mutated protein.” for “developed.”

PC9-ER and GR1 to GR5 = experiment: cells; type: cell-based; conditions: Homo sapiens, PC-9/ER; PC9-ER and GR1 to GR5 resistant lines
Excerpt: as §10, §8

Bmi1 = experiment: Western blot, Bmi1 level, PC9 cells; type: cell-based, human; conditions: PC9, 24 h, gefitinib 0.5 μM, Ab1; Ctrl = 100
Description: as §9
(§11) A preliminary analysis was performed to test some of them: Notch3 cleaved (active form of Notch3), phosphor-YAP, Bmi1 and Hes1 (related to stem cells) and AXL (related to EMT transition). Also, PARP was investigated to determine if the antibodies induce apoptosis. Extracts of the PC9 cell line obtained in previous experiments were used. […] A not-so-significant down-regulation of Bmi1 was also observed.

HES1 = experiment: Western blot, Hes1 level, PC9 cells; type: cell-based, human; conditions: PC9, 24 h, gefitinib 0.5 μM, Ab1; Ctrl = 100
Description: as §9, §11

PARP = experiment: Western blot, total PARP, PC9 cells; type: cell-based, human; conditions: PC9, 24 h, gefitinib 0.5 μM, Ab1; Ctrl = 100
Description: as §9, §11

PARP cleaved = experiment: Western blot, cleaved (truncated) PARP, PC9 cells; type: cell-based, human; conditions: PC9, 24 h, gefitinib 0.5 μM, Ab1 (FIG. 21)
Description: as §9, §11

Notch3 = experiment: Western blot, Notch3, PC9 cells; type: cell-based, human; conditions: PC9, 24 h, gefitinib 0.5 μM, Ab1; Ctrl = 100
Description: as §9, §11

Notch3 truncated = experiment: Western blot, truncated (cleaved) Notch3, PC9 cells; type: cell-based, human; conditions: PC9, 24 h, gefitinib 0.5 μM, Ab1; Ctrl = 100
Description: as §9, §11

AXL = experiment: Western blot, AXL, PC9 cells; type: cell-based, human; conditions: PC9, 24 h, gefitinib 0.5 μM, Ab1; Ctrl = 100
Description: as §9, §11

pYAP = experiment: Western blot, phospho-YAP, PC9 cells; type: cell-based, human; conditions: PC9, 24 h, gefitinib 0.5 μM, Ab1; Ctrl = 100
Description: as §9, §11

[9] = PC9, 2 h, AZD9291 0.2 μM, Ab1, Ctrl = 100
[10] = PC9, 0% FBS, EGF-induced, 2 h, erlotinib 1 μM, Ab 1/2 dilution, Control = 100
[11] = PC9, 2 h, erlotinib 1 μM, anti-EGF, nonstandard conditions and serum starvation (FIG. 13, 14)
[12] = PC9, 24 h serum starvation and drug treatment, gefitinib 0.5 μM, Ab 1/2, Control = 100
[13] = PC9, serum-starved, EGF, 15 min, gefitinib 40 nM, antibody 1/20 to 1/5 (FIG. 6)

Q: How did the pEGFR (p-EGFR [1]; [9]) turn out when C=CC(=O)Nc1cc(Nc2nccc(-c3cn(C)c4ccccc34)n2)c(OC)cc1N(C)CCN(C)C [AZD9291] was run?
A: 76.3

Q: And the “pErk ½” value (p-ERK1/2 [2]; [9])?
A: 3.7

Q: What about the pAkt (p-Akt [3]; [9]) of the same molecule?
A: 2.9

Q: What about the pSTAT3 (pSTAT-3 [4]; [9]) of the same molecule?
A: 146.6

Q: What about the pEGFR (p-EGFR [5]; PC9-GR4, 2 h) of the same molecule?
A: 2.5

Q: And the EGFR (p-EGFR [5]; PC9-GR4, 24 h)?
A: 138.6

Q: And the “pErk ½” value (p-ERK1/2 [6]; PC9-GR4, 2 h)?
A: 53.6

Q: And the “Erk ½” value (p-ERK1/2 [6]; PC9-GR4, 24 h)?
A: 20.5

Q: What about the pAkt (p-Akt [7]; PC9-GR4, 2 h) of the same molecule?
A: 42.7

Q: And the Akt (p-Akt [7]; PC9-GR4, 24 h)?
A: 26.8

Q: And the pSTAT3 (pSTAT-3 [8]; PC9-GR4, 2 h)?
A: 60

Q: What about the STAT3 (pSTAT-3 [8]; PC9-GR4, 24 h) of the same molecule?
A: 847.5

Q: What about the IC50 (PC9 cells) of the same molecule?
A: in the nM range

Q: What about the “sensitivity of cell lines” value (PC9-GR1 and GR4) of the same molecule?
A: sensitive

Q: C#Cc1cccc(Nc2ncnc3cc(OCCOC)c(OCCOC)cc23)c1 [Erlotinib, N-(3-ethynylphenyl)-6,7-bis(2-methoxyethoxy)-4-quinazolinamine] was tested. Which EGFR (p-EGFR [1]; [10]) did it give?
A: 14.3

Q: What about the ERK (p-ERK1/2 [2]; [10]) of the same molecule?
A: 0

Q: And the “effect on Erk activation” value (p-ERK1/2 [2]; [11])?
A: inactivated

Q: What about the Akt (p-Akt [3]; [10]) of the same molecule?
A: 0

Q: What about the STAT-3 (pSTAT-3 [4]; [10]) of the same molecule?
A: 130

Q: What about the “effect on STAT3 activation” value (pSTAT-3 [4]; [11]) of the same molecule?
A: activated

Q: What about the IC50 (PC9-ER and GR1 to GR5) of the same molecule?
A: 5 to 10 µM

Q: For COc1cc2ncnc(Nc3ccc(F)c(Cl)c3)c2cc1OCCCN1CCOCC1 [Gefitinib], which “effect on Erk activation” value (p-ERK1/2 [2]) is on record?
A: inactivated

Q: What about the “effect on Erk phosphorylation” value (p-ERK1/2 [2]) of the same molecule?
A: inhibited

Q: And the pERK (p-ERK1/2 [2])?
A: 8.1

Q: And the pAkt (p-Akt [3]; [12])?
A: 72.6

Q: And the “effect on Akt phosphorylation” value (p-Akt [3]; [13])?
A: inhibited

Q: And the pSTAT3 (pSTAT-3 [4]; [12])?
A: 569.2

Q: And the “effect on STAT-3 activation” value (pSTAT-3 [4]; PC9, nonstandard conditions (not serum-starved, 10% FBS, no EGF), 2 h, gefitinib 0.5 μM, anti-EGF 1/2 (FIG. 8))?
A: activated

Q: And the “effect on STAT3 activation” value (pSTAT-3 [4]; PC9, serum starvation, EGF induction, 2 h, gefitinib 0.5 μM, anti-EGF 1/2 (FIG. 2, FIG. 9))?
A: activated

Q: And the “effect on STAT3 phosphorylation” value (pSTAT-3 [4]; [13])?
A: activated

Q: What about the Bmi1 (Bmi1) of the same molecule?
A: 100.1

Q: And the Hes1 (HES1)?
A: 86.5

Q: What about the PARP total (PARP) of the same molecule?
A: 110

Q: And the PARP cleavage (PARP cleaved)?
A: able to induce it

Q: And the Notch3 (Notch3)?
A: 120.8

Q: What about the Notch3 truncated (Notch3 truncated) of the same molecule?
A: 98.9

Q: And the AXL (AXL)?
A: 135.4

Q: And the “p YAP (Ser 397)” value (pYAP)?
A: 137.6

Q: Which IC50 (PC9 cells) does the source give for COc1cc2c(Oc3ccc(NC(=O)C4(C(=O)Nc5ccc(F)cc5)CC4)cc3F)ccnc2cc1OCCCN1CCOCC1 [foretinib] here?
A: in the nM range

— patent publication US12258389B2, “Methods and compositions for inhibition of EGF/EGFR pathway in combination with tyrosine kinase inhibitors” (In3Bio Ltd., priority 2015, dated 2025)
